According to PubChem BioAssay AID2060889 (Molecular Pharmacology Branch, DTP, NCI, 2025):
One block for each compound: values may come before it.

System: LG0567-F671-PDC complex spheroids viability
Assay: Anticancer human tumor LG0567-F671-PDC patient-derived lung adenocarcinoma cell line growth inhibition [RAS]
Details: for IC50: curve of first compound; for viability, T/C: stronger effect = lower value
Procedure, shortened: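 Agents were tested in combination matrices in half-log decrements from a top concentration at or near clinical Cmax (10 microM if undetermined). Targets were multi-cell spheroids of tumour lines plus HUVEC and MSC stromal cells.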

[1] = second compound 0.000949 µM, first compound 0.00316 µM
[2] = second compound 0.000949 µM, first compound 0.01 µM
[3] = second compound 0.000949 µM, first compound 0.0316 µM
[4] = second compound 0.000949 µM, first compound 0.1 µM
[5] = second compound 0.000949 µM, first compound 0.316 µM
[6] = second compound 0.000949 µM, first compound 1 µM
[7] = second compound 0.003 µM, first compound 0.00316 µM
[8] = second compound 0.003 µM, first compound 0.01 µM
[9] = second compound 0.003 µM, first compound 0.0316 µM
[10] = second compound 0.003 µM, first compound 0.1 µM
[11] = second compound 0.003 µM, first compound 0.316 µM
[12] = second compound 0.003 µM, first compound 1 µM
[13] = second compound 0.00949 µM, first compound 0.00316 µM
[14] = second compound 0.00949 µM, first compound 0.01 µM
[15] = second compound 0.00949 µM, first compound 0.0316 µM
[16] = second compound 0.00949 µM, first compound 0.1 µM
[17] = second compound 0.00949 µM, first compound 0.316 µM
[18] = second compound 0.00949 µM, first compound 1 µM
[19] = second compound 0.03 µM, first compound 0.00316 µM
[20] = second compound 0.03 µM, first compound 0.01 µM
[21] = second compound 0.03 µM, first compound 0.0316 µM
[22] = second compound 0.03 µM, first compound 0.1 µM
[23] = second compound 0.03 µM, first compound 0.316 µM
[24] = second compound 0.03 µM, first compound 1 µM
[25] = second compound 0.0949 µM, first compound 0.00316 µM
[26] = second compound 0.0949 µM, first compound 0.01 µM
[27] = second compound 0.0949 µM, first compound 0.0316 µM
[28] = second compound 0.0949 µM, first compound 0.1 µM
[29] = second compound 0.0949 µM, first compound 0.316 µM
[30] = second compound 0.0949 µM, first compound 1 µM
[31] = second compound 0.3 µM, first compound 0.00316 µM
[32] = second compound 0.3 µM, first compound 0.01 µM
[33] = second compound 0.3 µM, first compound 0.0316 µM
[34] = second compound 0.3 µM, first compound 0.1 µM
[35] = second compound 0.3 µM, first compound 0.316 µM
[36] = second compound 0.3 µM, first compound 1 µM
[37] = second compound 0.000949 µM, first compound 3.16 µM
[38] = second compound 0.000949 µM, first compound 10 µM
[39] = second compound 0.003 µM, first compound 3.16 µM
[40] = second compound 0.003 µM, first compound 10 µM
[41] = second compound 0.00949 µM, first compound 3.16 µM
[42] = second compound 0.00949 µM, first compound 10 µM
[43] = second compound 0.03 µM, first compound 3.16 µM
[44] = second compound 0.03 µM, first compound 10 µM
[45] = second compound 0.0949 µM, first compound 3.16 µM
[46] = second compound 0.0949 µM, first compound 10 µM
[47] = second compound 0.3 µM, first compound 3.16 µM
[48] = second compound 0.3 µM, first compound 10 µM
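Further: spheroids exposed to compound for seven days before readout.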
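Wherever IC50 is given: luminescence signal used as a proxy for viable cells.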

IC50 (second compound 0.000949 µM): < 3.16 nM | IC50 (second compound 0.003 µM): < 3.16 nM | IC50 (second compound 0.00949 µM): < 3.16 nM | IC50 (second compound 0.03 µM): < 3.16 nM | IC50 (second compound 0.0949 µM): < 3.16 nM | IC50 (second compound 0.3 µM): < 3.16 nM
SMILES: Nc1ccn(C2OC(CO)C(O)C2(F)F)c(=O)n1 (stereo not drawn) + CCn1c(-c2cc(N3CCN(C)CC3)cnc2C(C)OC)c2c3cc(ccc31)-c1csc(n1)CC(NC(=O)C1CC1C)C(=O)N1CCCC(N1)C(=O)OCC(C)(C)C2
viability, T/C [1]: 23.8% | viability, T/C [2]: 22.4% | viability, T/C [3]: 22.1% | viability, T/C [4]: 22.6% | viability, T/C [5]: 20.7% | viability, T/C [6]: 22% | viability, T/C [7]: 11% | viability, T/C [8]: 10.7% | viability, T/C [9]: 10.6% | viability, T/C [10]: 8.86% | viability, T/C [11]: 11.5% | viability, T/C [12]: 12.4% | viability, T/C [13]: 6.32% | viability, T/C [14]: 6.32% | viability, T/C [15]: 6.59% | viability, T/C [16]: 6.78% | viability, T/C [17]: 6.01% | viability, T/C [18]: 7.27% | viability, T/C [19]: 6.63% | viability, T/C [20]: 4.5% | viability, T/C [21]: 4.58% | viability, T/C [22]: 4.82% | viability, T/C [23]: 5.13% | viability, T/C [24]: 5.29% | viability, T/C [25]: 3.22% | viability, T/C [26]: 3.54% | viability, T/C [27]: 3.82% | viability, T/C [28]: 3.99% | viability, T/C [29]: 4.28% | viability, T/C [30]: 5.17% | viability, T/C [31]: 2.59% | viability, T/C [32]: 2.74% | viability, T/C [33]: 3.25% | viability, T/C [34]: 3.47% | viability, T/C [35]: 4.08% | viability, T/C [36]: 3.48%

IC50 (second compound 0.000949 µM): < 3.16 nM | IC50 (second compound 0.003 µM): < 3.16 nM | IC50 (second compound 0.00949 µM): < 3.16 nM | IC50 (second compound 0.03 µM): < 3.16 nM | IC50 (second compound 0.0949 µM): < 3.16 nM | IC50 (second compound 0.3 µM): < 3.16 nM
SMILES: O=C(c1ccc(F)c(F)c1Nc1ccc(I)cc1F)N1CC(O)([C@@H]2CCCCN2)C1 + CCn1c(-c2cccnc2C(C)OC)c2c3cc(ccc31)N1CCOC(CC(NC(=O)C(C(C)C)N(C)C(=O)C3(F)CCN(C(=O)C#CC(C)(C)N(C)C)CC3)C(=O)N3CCCC(N3)C(=O)OCC(C)(C)C2)C1
viability, T/C [1]: 13.4% | viability, T/C [2]: 11.5% | viability, T/C [3]: 9.69% | viability, T/C [4]: 6.79% | viability, T/C [5]: 3.71% | viability, T/C [6]: 1.41% | viability, T/C [7]: 12.6% | viability, T/C [8]: 11.1% | viability, T/C [9]: 9.13% | viability, T/C [10]: 7.29% | viability, T/C [11]: 3.35% | viability, T/C [12]: 1.31% | viability, T/C [13]: 13.7% | viability, T/C [14]: 11.1% | viability, T/C [15]: 7.73% | viability, T/C [16]: 7.78% | viability, T/C [17]: 3.51% | viability, T/C [18]: 1.48% | viability, T/C [19]: 10.9% | viability, T/C [20]: 10.1% | viability, T/C [21]: 7.96% | viability, T/C [22]: 5.76% | viability, T/C [23]: 3.19% | viability, T/C [24]: 1% | viability, T/C [25]: 8.93% | viability, T/C [26]: 7.87% | viability, T/C [27]: 7.13% | viability, T/C [28]: 4.53% | viability, T/C [29]: 2.24% | viability, T/C [30]: 0.97% | viability, T/C [31]: 7.33% | viability, T/C [32]: 7.35% | viability, T/C [33]: 5.27% | viability, T/C [34]: 3.14% | viability, T/C [35]: 1.96% | viability, T/C [36]: 0.65%

IC50 (second compound 0.000949 µM): < 31.6 nM | IC50 (second compound 0.003 µM): < 31.6 nM | IC50 (second compound 0.00949 µM): < 31.6 nM | IC50 (second compound 0.03 µM): < 31.6 nM | IC50 (second compound 0.0949 µM): < 31.6 nM | IC50 (second compound 0.3 µM): < 31.6 nM
SMILES: C[C@@H](NC(=O)c1ncnc(N)c1Cl)c1ncc(C(=O)Nc2cc(C(F)(F)F)c(Cl)cn2)s1 + CCn1c(-c2cc(N3CCN(C)CC3)cnc2C(C)OC)c2c3cc(ccc31)-c1csc(n1)CC(NC(=O)C1CC1C)C(=O)N1CCCC(N1)C(=O)OCC(C)(C)C2
viability, T/C [3]: 30.9% | viability, T/C [4]: 37.5% | viability, T/C [5]: 43.4% | viability, T/C [6]: 39.1% | viability, T/C [37]: 40.3% | viability, T/C [38]: 35.3% | viability, T/C [9]: 19.7% | viability, T/C [10]: 18.3% | viability, T/C [11]: 19.9% | viability, T/C [12]: 22.7% | viability, T/C [39]: 24.5% | viability, T/C [40]: 26.4% | viability, T/C [15]: 7.34% | viability, T/C [16]: 8.73% | viability, T/C [17]: 10.4% | viability, T/C [18]: 11.1% | viability, T/C [41]: 13.5% | viability, T/C [42]: 12.6% | viability, T/C [21]: 5.32% | viability, T/C [22]: 5.26% | viability, T/C [23]: 5.82% | viability, T/C [24]: 8.15% | viability, T/C [43]: 8.79% | viability, T/C [44]: 9.05% | viability, T/C [27]: 4.43% | viability, T/C [28]: 3.63% | viability, T/C [29]: 3.94% | viability, T/C [30]: 5.56% | viability, T/C [45]: 5.9% | viability, T/C [46]: 7.14% | viability, T/C [33]: 3.16% | viability, T/C [34]: 4.04% | viability, T/C [35]: 3.86% | viability, T/C [36]: 4.35% | viability, T/C [47]: 5.96% | viability, T/C [48]: 5.33%

IC50 (second compound 0.000949 µM): < 31.6 nM | IC50 (second compound 0.003 µM): < 31.6 nM | IC50 (second compound 0.00949 µM): < 31.6 nM | IC50 (second compound 0.03 µM): < 31.6 nM | IC50 (second compound 0.0949 µM): < 31.6 nM | IC50 (second compound 0.3 µM): < 31.6 nM
SMILES: CC1(O)CCCC1n1c(=O)c(C(F)F)cc2cnc(NC3CCN(S(C)(=O)=O)CC3)nc21 (stereo not drawn) + CCn1c(-c2cc(N3CCN(C)CC3)cnc2C(C)OC)c2c3cc(ccc31)-c1csc(n1)CC(NC(=O)C1CC1C)C(=O)N1CCCC(N1)C(=O)OCC(C)(C)C2
viability, T/C [3]: 29.6% | viability, T/C [4]: 27.7% | viability, T/C [5]: 34.2% | viability, T/C [6]: 35.2% | viability, T/C [37]: 36.3% | viability, T/C [38]: 24.7% | viability, T/C [9]: 11.8% | viability, T/C [10]: 15.6% | viability, T/C [11]: 16.7% | viability, T/C [12]: 17.6% | viability, T/C [39]: 18.6% | viability, T/C [40]: 14.1% | viability, T/C [15]: 7.99% | viability, T/C [16]: 8.49% | viability, T/C [17]: 10.3% | viability, T/C [18]: 10.8% | viability, T/C [41]: 11.8% | viability, T/C [42]: 8.83% | viability, T/C [21]: 4.53% | viability, T/C [22]: 5.49% | viability, T/C [23]: 6.91% | viability, T/C [24]: 7.53% | viability, T/C [43]: 8.07% | viability, T/C [44]: 5.96% | viability, T/C [27]: 4.61% | viability, T/C [28]: 4.51% | viability, T/C [29]: 5.52% | viability, T/C [30]: 6.15% | viability, T/C [45]: 6.66% | viability, T/C [46]: 5% | viability, T/C [33]: 3.25% | viability, T/C [34]: 3.76% | viability, T/C [35]: 4.31% | viability, T/C [36]: 5.52% | viability, T/C [47]: 5.43% | viability, T/C [48]: 4.68%
